In this test the target is T1, h5-HT4b (Homo sapiens, UniProt Q13639).
T1 construct: expressed in transfected cells; host or cells: HEK 293 (clone 9), membrane preparation
T1 sequence (Q13639 whole entry): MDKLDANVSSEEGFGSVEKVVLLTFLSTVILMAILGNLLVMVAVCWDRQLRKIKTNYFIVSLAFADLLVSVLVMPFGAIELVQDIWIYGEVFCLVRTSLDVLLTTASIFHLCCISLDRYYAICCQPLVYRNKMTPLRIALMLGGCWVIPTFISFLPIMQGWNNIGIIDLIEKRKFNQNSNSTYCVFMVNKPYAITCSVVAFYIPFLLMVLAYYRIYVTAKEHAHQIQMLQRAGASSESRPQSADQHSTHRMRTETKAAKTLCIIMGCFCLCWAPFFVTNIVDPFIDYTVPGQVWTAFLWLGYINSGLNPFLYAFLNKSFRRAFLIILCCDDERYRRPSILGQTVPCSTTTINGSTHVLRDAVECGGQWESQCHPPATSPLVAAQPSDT
Briefly: 5HT4 antagonism: [3H]GR113808 binding to membranes of h5-HT4b-HEK 293 clone 9 cells. Particulars: [3H]GR113808 0.1 nM, h5-HT4b-HEK 293 membranes, 30 min at 25° C. As to the method: h5-HT4b-HEK 293 clone 9 cells were cultured in 150 mm Petri dishes and washed twice with cold PBS. The cells were then scraped from the plates and suspended in 50 mM Tris-HCl buffer, pH 7.4 and harvested by centrifugation at 23,500 rpm for 10 minutes. The pellet was resuspended in 5 mM Tris-HCl, pH 7.4 and homogenized with an Ultra Turrax homogenizer. The membranes were collected by centrifugation at 30,000 rpm for 20 min, resuspended in 50 mM Tris-HCl pH 7.4 and stored at −80° C. For the experiment, assay mixtures (0.5 ml) contained 50 μl of the tritiated ligand (5-HT4 antagonist [^3H]GR113808 0.1 nM) and 0.4 ml membrane preparation (15 μg protein/ml). 50 μl of 10% DMSO was added for total binding. 50 μl of 1 μM of (+)-trans-(1-butyl-3-hydroxy4-piperidinyl)methyl 8-amino-7-chloro-2,3-dihydro-1,4-benzodioxin-5-carboxylate (a proprietary 5HT4 agonist of Janssen Pharmaceutica) was added for determination of non-specific binding.
The [^3H]GR113808 assay buffer was 50 mM HEPES-NaOH, pH 7.4. The mixtures were incubated for 30 min at 25° C. The incubation was terminated by filtration over a Unifilter 96 GF/B presoaked in 0.1% polyethylenimine, followed by six washing steps with 50 mM HEPES-NaOH, pH 7.4.
As for `CO[C@@H]1CN(CCOCCO)CC[C@H]1CNC(=O)c1cc(Cl)c(Br)c2c1OCCCO2` [compound 51], the IC50 (commonly the concentration needed to halve the response being measured) was 5.13 nM.
As for `COc1c(Cl)cc(C(=O)NC[C@@H]2CCN(CC3CCCO3)C[C@H]2OC)c2c1OCCCO2` (some centres unmarked) [compound 73], the IC50 was 18.2 nM.
With `COc1c(Cl)cc(C(=O)NC[C@@H]2CCNC[C@H]2O)c2c1OCCCO2` [compound 12] the figure was 43.7 nM.
For `CNCCN1CC[C@@H](CNC(=O)c2cc(Cl)c(Br)c3c2OCCCO3)[C@H](OC)C1` [compound 48], the IC50 is 57.5 nM.
The compound `CNCCCN1CC[C@@H](CNC(=O)c2cc(Cl)c(Cl)c3c2OCCCO3)[C@H](OC)C1` [compound 74] had an IC50 of 5.37 nM.
As for `COc1ccc(C(=O)NC[C@@H]2CCNC[C@H]2O)c2c1OCCCO2` [compound 97], the IC50 was 56.2 nM.
With `COc1ccc(C(=O)NC[C@@H]2CCN(CCCC(N)=O)C[C@H]2O)c2c1OCCO2` [compound 139] the figure was 5.89 nM; with `COc1ccc(C(=O)NC[C@@H]2CCN(CCCO)C[C@H]2O)c2c1OCCCO2` [compound 99], 7.24 nM.
For the compound `COc1c(Cl)cc(C(=O)NC[C@@H]2CCN(CC3OCCO3)C[C@H]2O)c2c1OCCO2` [compound 9], the IC50 was 7.94 nM.
With `COCCCN1CC[C@@H](CNC(=O)c2cc(Cl)c(OC)c3c2OCCO3)[C@H](O)C1` [compound 6], the IC50 was 6.46 nM.
Consider `COCCCN1CC[C@@H](CNC(=O)c2ccc(OC)c3c2OCCO3)[C@H](O)C1` [compound 115], for which the IC50 is 11.7 nM.
In turn, `COc1c(Cl)cc(C(=O)NC[C@@H]2CCN(CCOCCO)C[C@H]2OC)c2c1OCCO2` [compound 55] had an IC50 of 166 nM.
With `COc1c(Cl)cc(C(=O)NC[C@@H]2CCN(CCCO)C[C@H]2OC)c2c1OCCCO2` [compound 57] the figure was 36.3 nM.
For `COc1ccc(C(=O)NC[C@@H]2CCN(CCCC#N)C[C@H]2O)c2c1OCCO2` [compound 138], the IC50 is 6.17 nM.
Then `COCCCN1CC[C@@H](CNC(=O)c2cc(Cl)c(Cl)c3c2OCCCO3)[C@H](O)C1` [compound 37], with 3.89 nM; and `CNCCN1CC[C@@H](CNC(=O)c2cc(Cl)c(Br)c3c2OCCCO3)[C@H](O)C1` [compound 42], with 27.5 nM; and `O=C(NC[C@@H]1CCN(CCOCCO)C[C@H]1O)c1cc(Cl)c(Br)c2c1OCCCO2` [compound 25], with 3.09 nM.
Then `O=C(NC[C@@H]1CCN(CCCCO)C[C@H]1O)c1ccc(F)c2c1OCCCO2` [compound 143], with 1.17 nM.
With `COc1c(Cl)cc(C(=O)NC[C@@H]2CCN(CCOCCO)C[C@H]2OC)c2c1OCCCO2` [compound 68] the figure was 93.3 nM.
For the compound `COCCCCN1CC[C@H](CNC(=O)c2ccc(OC)c3c2OCCCO3)[C@H](O)C1` [compound 142], the IC50 was 162 nM.
For `COc1c(Cl)cc(C(=O)NC[C@@H]2CCN(CCCC#N)C[C@H]2OC)c2c1OCCCO2` [compound 69], the IC50 is 79.4 nM.
Then `Cc1ccc(C(=O)NC[C@@H]2CCN(CCCOc3ccc(S(N)(=O)=O)cc3)C[C@H]2O)c2c1OCCCO2` [compound 105], with 0.603 nM; and `CNCCCCN1CC[C@@H](CNC(=O)c2cc(Cl)c(OC)c3c2OCCO3)[C@H](O)C1` [compound 43], with 23.4 nM; and `COc1ccc(C(=O)NCC2(O)CCN(CCCC(N)=O)CC2)c2c1OCCCO2` [compound 147], with 501 nM.
Compound `COc1ccc(C(=O)NCC2(O)CCN(CCCC#N)CC2)c2c1OCCCO2` [compound 133] showed an IC50 of 11.2 nM.
In turn, `CNCCN1CC[C@@H](CNC(=O)c2cc(Cl)c(OC)c3c2OCCO3)[C@H](O)C1` [compound 83] had an IC50 of 64.6 nM.
In turn, `COCCCN1CC[C@@H](CNC(=O)c2cc(Cl)c(Br)c3c2OCCCO3)[C@H](O)C1` [compound 38] showed an IC50 of 2.95 nM.
`COCCCCN1CCC(O)(CNC(=O)c2ccc(OC)c3c2OCCCO3)CC1` [compound 135] gave an IC50 of 182 nM.
Regarding `COc1c(Cl)cc(C(=O)NC[C@@H]2CCNC[C@H]2O)c2c1OCCO2` [compound 8], the IC50 was 77.6 nM.
`O=C(NC[C@@H]1CCN(CC2OCCO2)C[C@H]1O)c1cc(Cl)c(Br)c2c1OCCCO2` [compound 26]: the IC50 is 6.31 nM.
Compound `CCCCN1CCC(O)(CNC(=O)c2ccc(OC)c3c2OCCCO3)CC1` [compound 136] had an IC50 of 91.2 nM.
The compound `CO[C@@H]1CN(CC2CCCO2)CC[C@H]1CNC(=O)c1cc(Cl)c(Br)c2c1OCCCO2` (some centres unmarked) [compound 50] gave an IC50 of 4.37 nM.
With `O=C(NC[C@@H]1CCNC[C@H]1O)c1cc(Cl)c(Br)c2c1OCCCO2` [compound 11] the figure was 5.89 nM; with `COc1c(Cl)cc(C(=O)NC[C@@H]2CCN(CCCO)C[C@H]2O)c2c1OCCO2` [compound 5], 5.5 nM; with `COc1ccc(C(=O)NC[C@@H]2CCN(CCCCNc3nccnc3C)C[C@H]2O)c2c1OCCCO2` [compound 130], 3.89 nM.
Compound `CO[C@@H]1CNCC[C@H]1CNC(=O)c1cc(Cl)c(Cl)c2c1OCCCO2` [compound 49] had an IC50 of 8.13 nM.
Then `COc1ccc(C(=O)NC[C@@H]2CCN(CCCCC(N)=O)C[C@H]2O)c2c1OCCCO2` [compound 122], with 4.07 nM; and `Cc1ccc(C(=O)NC[C@@H]2CCN(CCCCOc3ccc(S(N)(=O)=O)cc3)C[C@H]2O)c2c1OCCCO2` [compound 106], with 0.813 nM.
As for `O=C(NC[C@@H]1CCN(CCC2OCCO2)C[C@H]1O)c1cc(Cl)c(Cl)c2c1OCCCO2` [compound 88], the IC50 was 2.24 nM.
As to `CCN1CC[C@@H](CNC(=O)c2ccc(C)c3c2OCCCO3)[C@H](O)C1` [compound 111], the IC50 is 0.871 nM.
`COCCCN1CC[C@@H](CNC(=O)c2cc(Cl)c(OC)c3c2OCCCO3)[C@H](OC)C1` [compound 67]: the IC50 is 22.4 nM.
With `CCCCN1CC[C@@H](CNC(=O)c2cc(Cl)c(OC)c3c2OCCO3)[C@H](OC)C1` [compound 77], the IC50 was 8.91 nM.
Turning to `CNCCCN1CC[C@@H](CNC(=O)c2cc(Cl)c(OC)c3c2OCCCO3)[C@H](OC)C1` [compound 62], the IC50 was 490 nM.
`CCCCN1CC[C@@H](CNC(=O)c2cc(Cl)c(Br)c3c2OCCCO3)[C@H](OC)C1` [compound 58] showed an IC50 of 2.34 nM.
Compound `COc1ccc(C(=O)NC[C@@H]2CCN(CCCO)C[C@H]2OC)c2c1OCCO2` [compound 119] had a half-inhibitory concentration (IC50) of 20.4 nM.
In the case of `COc1ccc(C(=O)NC[C@H]2CCN(CCCC#N)C[C@H]2O)c2c1OCCCO2` [compound 137], the IC50 is 155 nM.
The compound `CC(C)n1ccn(CCN2CC[C@@H](CNC(=O)c3cc(Cl)c(Br)c4c3OCCCO4)[C@H](O)C2)c1=O` [compound 91] showed an IC50 of 13.5 nM.
`COc1c(Cl)cc(C(=O)NC[C@@H]2CCN(CCCC#N)C[C@H]2O)c2c1OCCCO2` [compound 34] showed an IC50 of 1 nM.
Then `COc1c(Cl)cc(C(=O)NC[C@@H]2CCN(CCn3ccn(C(C)C)c3=O)C[C@H]2O)c2c1OCCO2` [compound 60], with 35.5 nM; and `COc1c(Cl)cc(C(=O)NC[C@@H]2CCN(CCn3ccn(C(C)C)c3=O)C[C@H]2OC)c2c1OCCCO2` [compound 79], with 229 nM; and `COc1c(Cl)cc(C(=O)NC[C@@H]2CCN(CC3CCCO3)C[C@H]2OC)c2c1OCCO2` (some centres unmarked) [compound 41], with 16.2 nM.
On to `CNCCCCN1CC[C@@H](CNC(=O)c2cc(Cl)c(OC)c3c2OCCCO3)[C@H](O)C1` [compound 40], for which the IC50 is 14.1 nM.
Consider `COc1c(Cl)cc(C(=O)NC[C@@H]2CCNC[C@H]2OC)c2c1OCCO2` [compound 52], for which the IC50 was 457 nM.
Consider `COc1c(Cl)cc(C(=O)NC[C@@H]2CCN(CCC3OCCO3)C[C@H]2O)c2c1OCCCO2` [compound 29], for which the IC50 was 6.46 nM.
As for `CNCCCCN1CC[C@@H](CNC(=O)c2ccc(OC)c3c2OCCCO3)[C@H](O)C1` [compound 102], the IC50 was 6.46 nM.
On to `Cc1ccc(C(=O)NC[C@@H]2CCN(CC3CCCO3)C[C@H]2O)c2c1OCCCO2` (some centres unmarked) [compound 95], for which the IC50 was 1.02 nM.
The compound `COc1ccc(C(=O)NC[C@H]2CCN(CCCC(N)=O)C[C@H]2O)c2c1OCCCO2` [compound 144] had a 50% inhibitory concentration (IC50) of 282 nM.
With `O=C(NC[C@@H]1CCN(CCCO)C[C@H]1O)c1cc(Cl)c(Br)c2c1OCCCO2` [compound 24], the 50% inhibitory concentration (IC50) was 1.78 nM.
Consider `COc1ccc(C(=O)NC[C@@H]2CCN(CCCCO)C[C@H]2O)c2c1OCCCO2` [compound 121], for which the IC50 was 4.57 nM.
With `COc1c(Cl)cc(C(=O)NC[C@@H]2CCN(CCCO)C[C@H]2OC)c2c1OCCO2` [compound 53] the figure was 20 nM; with `COc1c(Cl)cc(C(=O)NC[C@@H]2CCN(CCCC#N)C[C@H]2O)c2c1OCCO2` [compound 30], 12.6 nM.
Compound `COc1ccc(C(=O)NC[C@@H]2CCN(CCCC#N)C[C@H]2OC)c2c1OCCCO2` [compound 112] had an IC50 of 72.4 nM.
As for `COCCCN1CC[C@@H](CNC(=O)c2ccc(OC)c3c2OCCCO3)[C@H](O)C1` [compound 98], the IC50 was 2.63 nM.
In turn, `CCCCN1CC[C@@H](CNC(=O)c2cc(Cl)c(Cl)c3c2OCCCO3)[C@H](OC)C1` [compound 81] showed an IC50 of 2.09 nM.
On to `CNCCCN1CC[C@@H](CNC(=O)c2cc(Cl)c(OC)c3c2OCCCO3)[C@H](O)C1` [compound 36], for which the IC50 is 38 nM.

The values are drawn from patent US7635706B2, “5HT4-antagonistic 4-(aminomethyl)-piperidine benzamides” (Janssen Pharmaceutica NV, priority 2003, dated 2009).
